The subject of data set [1] is chronic renal failure (5/6Nx) rats. To be noted: for Systolic blood pressure: tail-cuff. How it is done:
Male Wistar rats of 8 weeks of age were used in the experiment. A Rat was anesthetized with petobarbital and ⅔ of the left kidney was cut off, and one week after the right kidney was removed completely. Two weeks after the ⅚ nephrectomy, systolic blood pressure (SBP) was measured by a tail-cuff method, and the urine was collected in a metabolic cage for 24 hours to measure the urinary protein excretion. Rats were divided into 3 groups (each group: n=9) so that no difference occurred between the respective groups. Thereafter, a solvent (0.5% MC) was orally administered to the ⅚Nx-Cont. group at a dose of 5 ml/kg over 8 weeks. […] Similarly, to the ⅚Nx-Ena. group was administered 10 mg/kg/day of enalapril maleate dissolved in a solvent (0.5% MC). On the other hand, the solvent (0.5% MC) alone was orally administered to the abdominal-sectioned rats as a control group (Sham). Every 2 weeks, the urine was collected for 24 hours to measure the urinary protein excretion. Additionally, every 4 weeks, SBP was measured to examine the effect on the blood pressure.
The results were indicated by the mean±error. In comparison between the Sham group and the ⅚Nx-Cont. group, a t-test was made without correspondence, and when the significant level is less than 5%, it is considered as a significant difference. In comparison between the ⅚Nx rat-drug groups, multiple comparison (Dunnett's test) was made respectively without correspondence following the variance analysis of one-way classification. When the significant level is less than 5%, it is considered as a significant difference.

For data set [2], the system named is STZ-induced diabetic rats. To be noted: cited from earlier work.
For data set [3], the system named is rat's cultured mesangial cells. In words: Effect of ET on the growth and hypertrophy of rat's cultured mesangial cells. In kind it is cell-based. To be noted: for growth and hypertrophy of rat's cultured mesangial cells: depending on the concentration of 10^−12 to 10^−7M; for concentration of the maximum reaction (growth and hypertrophy): rat's cultured mesangial cells. How it is done:
In measurement of the hypertrophy activity, the cells used in the measurement of the cell growth activity using an Alamar Blue reagent were washed 3 times with a phosphate buffer, to which cells was added a direct protein-determining reagent (BioRad) to measure the absorbance at 595 nm. The protein content was calculated from the analytical curve. The protein content per the unit cell number was given as the hypertrophy activity from the cell number obtained by measurement of the growth activity.
The results were indicated by the mean±error.

Data set [4] concerns diabetic rats induced by streptozotocin (STZ). Briefly: Effect on the blood parameter and urinary parameter in diabetic rats induced by streptozotocin (STZ). In kind it is in vivo, Wistar (Crj) rats. To be noted: for Blood glucose level: enalapril maleate 10 mg/kg p.o. once a day. On the procedure: Wistar (Crj) rats of 9 weeks of age were divided into 5 groups so that there was no bias in urinary albumin excretion. To the 4 groups of the rats was administered intravenously STZ (50 mg/kg). […] After the lapse of 2, 4 and 6 weeks from the start of administration, urine was collected for 24 hours in a metabolic cage to measure a urinary parameter. The blood was collected from the tail vein after 2 and 4 weeks and from the abdominal aorta under anesthesia after 6 weeks to measure a blood parameter.
The results were indicated by the mean±error. In comparison between the Sham group and the STZ-Cont. group, a t-test was made without correspondence, and when the significant level is less than 5%, it is considered as a significant difference. In comparison between the STZ-dose groups of rats, multiple comparison (Dunnett's test) was made respectively without correspondence following the variance analysis of one-way classification. When the significant level is less than 5%, it is considered as a significant difference.

The mark [5] stands for this setting: continuously injected intraperitoneally.
Setting [6] is: enalapril maleate 10 mg/kg p.o.
Where [7] appears, read: enalapril maleate 10 mg/kg p.o., 4 weeks.
[8] abbreviates: 5/6Nx rats, enalapril maleate 10 mg/kg/day p.o., 0 week.
Where [9] appears, read: 5/6Nx rats, enalapril maleate 10 mg/kg/day p.o., 4 weeks.
The mark [10] stands for this setting: 5/6Nx rats, enalapril maleate 10 mg/kg/day p.o., 8 weeks.

Counter-ions that a name gives are not always drawn. Like-named read-outs stand apart in the source and are kept apart here. Bridge positions count the residues as written; N and C are the ends. Ends that are not written are not given here.

For the compound `COc1ccccc1Oc1c(NS(=O)(=O)C=Cc2ccccc2)nc(-c2ncccn2)nc1OC` [Compound 1, N-[6-Methoxy-5-(2-methoxyphenoxy)-2-(pyrimidin-2-yl)pyrimidin-4-yl]-2-phenylethenesulfonamide], the “death cases (mortality in renal dysfunction cases)” value in data set [1] (rat, in vivo, po, 1 mg/kg/day) is given as “no death was observed”.
Turning to FR139317, in data set [2], the plasma glucose level result is on record as “do not change the plasma glucose level”. Moreover, in data set [2] (setting [5]), the excretion of microalbuminuria result is listed as “reduces excretion of microalbuminuria” and the “gene expression of the extracellular matrix of the glomerulus” value is on record as “inhibits gene expression of the extracellular matrix of the glomerulus”.
Take `COc1ccccc1Oc1c(NS(=O)(=O)c2ccc(C(C)(C)C)cc2)nc(-c2ncccn2)nc1OCCO` [bosentan]: the plasma glucose level result in data set [2] is listed as “do not change the plasma glucose level”.
Consider `COc1cc(OC)nc(O[C@H](C(=O)O)C(OC)(c2ccccc2)c2ccccc2)n1` [darusentan], for which the blood triglyceride level entry in data set [2] (100 mg/kg, p.o., decreased only in comparison with control group) was “decreases the blood triglyceride level”. In addition, in data set [2] (100 mg/kg, p.o.), the Blood glucose level entry is recorded as “does not change the blood glucose level”. In data set [2] (100 mg/kg/day for 160 days), the microalbuminuria result is reported as “has a tendency to reduce microalbuminuria”.
For the compound “ET-1: Endothelin iso-peptide, endogenous physiologically active peptide consisting of 21 amino acids (CSCSSLMDKECVYFCHLDIIW; disulfide 1-15, 3-11; ends not checked; UniProt P05305 53-73, looked up)”, in data set [3], the “growth and hypertrophy of rat's cultured mesangial cells” value is “promoted the growth and hypertrophy”; the “concentration of the maximum reaction (growth and hypertrophy)” value was 10^−8 M.
Regarding “ET-3: Endothelin iso-peptide, endogenous physiologically active peptide consisting of 21 amino acids (CTCFTYKDKECVYYCHLDIIW; disulfide 1-15, 3-11; ends not checked; UniProt P14138 97-117, looked up)”, in data set [3], the “growth and hypertrophy of rat's cultured mesangial cells” value is “promoted the growth and hypertrophy”; the “concentration of the maximum reaction (growth and hypertrophy)” value was 10^−8 M.
In the case of `CCOC(=O)[C@H](CCc1ccccc1)N[C@@H](C)C(=O)N1CCC[C@H]1C(=O)O` [Ena., enalapril maleate], in data set [4] (setting [6]), the “inhibition of elevation of creatinine clearance (Ccr)” value was “there was no tendency that elevation of Ccr was inhibited”. The “urinary albumin excretion (UAE) change” value in data set [4] (setting [6]) is reported as “no UAE reduction was observed”. For the same compound, the Blood glucose level worked out at 403.0 ± 13.0 mg/dL in data set [4] (2 weeks), 393.2 ± 17.6 mg/dL in data set [4] (4 weeks) and 394.3 ± 9.6 mg/dL in data set [4] (6 weeks). The Urinary albumin excretion in data set [4] (enalapril maleate 10 mg/kg p.o., 0 week) is on record as 0.46 ± 0.04 mg/day; in data set [4] (enalapril maleate 10 mg/kg p.o., 2 weeks), 0.91 ± 0.13 mg/day; in data set [4] (setting [7]), 0.65 ± 0.14 mg/day; in data set [4] (enalapril maleate 10 mg/kg p.o., 6 weeks) it was 1.27 ± 0.18 mg/day. Also, in data set [4] (setting [7]), the Blood cholesterol level was 148.8 ± 11.2 mg/dL. In data set [4] (setting [7]), this compound registered a blood triglyceride level of 407.0 ± 35.7 mg/dL. Besides, the “hypotensive effect (SBP)” value in data set [1] (5/6Nx rats, enalapril maleate 10 mg/kg/day p.o.) is given as “a hypotensive effect was markedly recognized”. In addition, the Urinary protein excretion in data set [1] (setting [8]) is 36.9 ± 4.7 mg/day; in data set [1] (5/6Nx rats, enalapril maleate 10 mg/kg/day p.o., 2 weeks) it was 45.5 ± 10.5 mg/day; in data set [1] (setting [9]), 78.4 ± 15.3 mg/day; in data set [1] (5/6Nx rats, enalapril maleate 10 mg/kg/day p.o., 6 weeks), 165.1 ± 28.1 mg/day; in data set [1] (setting [10]), 261.2 ± 43.2 mg/day. Further, the Systolic blood pressure in data set [1] (setting [8]) is 136 ± 4 mmHg; in data set [1] (setting [9]), 129 ± 8 mmHg; in data set [1] (setting [10]), 124 ± 6 mmHg. Besides, the “death cases (mortality in renal dysfunction cases)” value in data set [1] (5/6Nx rats, enalapril maleate 10 mg/kg/day p.o., 9 cases per group) is given as 2; in data set [1] (5/6Nx rats, enalapril maleate 10 mg/kg/day p.o., 9 cases per group, listed as enalapril), “two death cases”.
